According to the supplement of paper PMC10307832:

Key:
Experiment in all cases: relative viability (nuclei count vs DMSO), 5 days (fraction); higher = more cells survive
NCI-H2087 = system: NCI-H2087
In short: (§1)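 A single step with final 0.05% Triton X-100, 1% formaldehyde and 1 ug/ml Hoechst fixed the cells and stained nuclei 5 days after treatment. Lung cancer cell lines in 1536-well plates had been treated by pin tool the day after seeding with one drug alone or a fixed anchor-drug dose plus five library-drug doses (not always all listed) in √10 steps, and nuclei were counted on 4× images. Relative viability is the ratio of nuclei in treated wells to nuclei in vehicle wells, taken as the median of duplicate plates.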

LOU-NH91 = system: LOU-NH91
In short: as §1

CAL-12T = system: CAL-12T
In short: as §1

NCI-H2405 = system: NCI-H2405
In short: as §1

NCI-H2228 = system: NCI-H2228
In short: as §1

LC-2-ad = system: LC-2-ad
In short: as §1

UMC-11 = system: UMC-11
In short: as §1

NCI-H2170 = system: NCI-H2170
In short: as §1

ABC-1 = system: ABC-1
In short: as §1

NCI-H1651 = system: NCI-H1651
In short: as §1

NCI-H460 = system: NCI-H460
In short: as §1

CCN(CC)CCCCNc1ncc2cc(-c3cc(OC)cc(OC)c3)c(NC(=O)NC(C)(C)C)nc2n1 + Cc1cc(Nc2cc(N3CCN(C)CC3)nc(Sc3ccc(NC(=O)C4CC4)cc3)n2)n[nH]1 [Tozasertib] (partner 0.1 µM)
relative viability (NCI-H2087; first compound 0.01 µM): 0.243
relative viability (NCI-H2087; first compound 0.03162 µM): 0.282
relative viability (NCI-H2087; first compound 0.1 µM): 0.25
relative viability (NCI-H2087; first compound 0.3162 µM): 0.236
relative viability (NCI-H2087; first compound 1 µM): 0.251
relative viability (LOU-NH91; first compound 0.01 µM): 0.613
relative viability (LOU-NH91; first compound 0.03162 µM): 0.684
relative viability (LOU-NH91; first compound 0.1 µM): 0.697
relative viability (LOU-NH91; first compound 0.3162 µM): 0.677
relative viability (LOU-NH91; first compound 1 µM): 0.574
relative viability (CAL-12T; first compound 0.01 µM): 0.28
relative viability (CAL-12T; first compound 0.03162 µM): 0.287
relative viability (CAL-12T; first compound 0.1 µM): 0.368
relative viability (CAL-12T; first compound 0.3162 µM): 0.257
relative viability (CAL-12T; first compound 1 µM): 0.293
relative viability (NCI-H2405; first compound 0.01 µM): 0.729
relative viability (NCI-H2405; first compound 0.03162 µM): 0.737
relative viability (NCI-H2405; first compound 0.1 µM): 0.699
relative viability (NCI-H2405; first compound 0.3162 µM): 0.733
relative viability (NCI-H2405; first compound 1 µM): 0.695
relative viability (NCI-H2228; first compound 0.01 µM): 0.183
relative viability (NCI-H2228; first compound 0.03162 µM): 0.231
relative viability (NCI-H2228; first compound 0.1 µM): 0.319
relative viability (NCI-H2228; first compound 0.3162 µM): 0.258
relative viability (NCI-H2228; first compound 1 µM): 0.197
relative viability (LC-2-ad; first compound 0.01 µM): 0.416
relative viability (LC-2-ad; first compound 0.03162 µM): 0.467
relative viability (LC-2-ad; first compound 0.1 µM): 0.433
relative viability (LC-2-ad; first compound 0.3162 µM): 0.483
relative viability (LC-2-ad; first compound 1 µM): 0.453
relative viability (UMC-11; first compound 0.01 µM): 0.214
relative viability (UMC-11; first compound 0.03162 µM): 0.203
relative viability (UMC-11; first compound 0.1 µM): 0.204
relative viability (UMC-11; first compound 0.3162 µM): 0.195
relative viability (UMC-11; first compound 1 µM): 0.196
relative viability (NCI-H2170; first compound 0.01 µM): 0.619
relative viability (NCI-H2170; first compound 0.03162 µM): 0.77
relative viability (NCI-H2170; first compound 0.1 µM): 0.747
relative viability (NCI-H2170; first compound 0.3162 µM): 0.755
relative viability (NCI-H2170; first compound 1 µM): 0.65
relative viability (ABC-1; first compound 0.01 µM): 0.211
relative viability (ABC-1; first compound 0.03162 µM): 0.21
relative viability (ABC-1; first compound 0.1 µM): 0.207
relative viability (ABC-1; first compound 0.3162 µM): 0.148
relative viability (ABC-1; first compound 1 µM): 0.187
relative viability (NCI-H1651; first compound 0.01 µM): 0.747
relative viability (NCI-H1651; first compound 0.03162 µM): 0.716
relative viability (NCI-H1651; first compound 0.1 µM): 0.907
relative viability (NCI-H1651; first compound 0.3162 µM): 0.714
relative viability (NCI-H1651; first compound 1 µM): 0.661
relative viability (NCI-H460; first compound 0.01 µM): 0.458
relative viability (NCI-H460; first compound 0.03162 µM): 0.66
relative viability (NCI-H460; first compound 0.1 µM): 0.477
relative viability (NCI-H460; first compound 0.3162 µM): 0.474
relative viability (NCI-H460; first compound 1 µM): 0.311
